# Key:
# Avena fatua [1] = assay: Post-emergence herbicidal action, AVEFA; type: in vivo; conditions: for herbicidal activity AVEFA: 80 g/ha, Table C
# Outline: (§1)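 Greenhouse-grown plants were sprayed at the one-leaf stage, 2–3 weeks after sowing. Damage was scored visually after about 3 weeks against untreated controls, as % action (100% = dead, 0% = like control).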
# ECHCG [2] = assay: Post-emergence herbicidal action, ECHCG; type: in vivo; conditions: 80 g/ha, Table C
# Outline: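 Weed and crop plants grown in sandy loam in the greenhouse, treated at the one-leaf stage 2–3 weeks after sowing. Damage scored visually after about 3 weeks vs untreated controls (0% = control, 100% = dead).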
# Setaria viridis [3] = assay: Pre-emergence herbicidal action, SETVI; type: in vivo; conditions: for herbicidal activity SETVI: dosage 320 g/ha, scored visually after 3 weeks vs untreated controls
# Outline: (§2)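 Percent herbicidal activity rated by eye 3 weeks after pre-emergence soil-surface application, compared with untreated pots. Seeds sat under sandy loam; sprays carried 0.2% wetting agent.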
# Amaranthus retroflexus [4] = assay: Post-emergence herbicidal action, AMARE; type: in vivo; conditions: 80 g/ha, Table D
# Outline: as §1
# Setaria viridis [5] = assay: Post-emergence herbicidal action, SETVI; type: in vivo; conditions: for herbicidal activity SETVI: 80 g/ha, Table C
# Outline: as §1
# Stellaria media [6] = assay: Post-emergence herbicidal action, STEME; type: in vivo; conditions: for Herbicidal activity STEME: 80 g/ha, Table D
# Outline: as §1
# Amaranthus retroflexus [7] = assay: Pre-emergence herbicidal action, AMARE; type: in vivo; conditions: dosage 320 g/ha, scored visually after 3 weeks vs untreated controls
# Outline: as §2
# Matricaria inodora = assay: Pre-emergence herbicidal action, MATIN; type: in vivo; conditions: for Herbicidal efficacy against MATIN: Table K; for herbicidal activity MATIN: scored visually after 3 weeks vs untreated controls
# Outline: as §2
# Avena fatua [8] = assay: Pre-emergence herbicidal action, AVEFA; type: in vivo; conditions: for herbicidal activity AVEFA: dosage 320 g/ha, scored visually after 3 weeks vs untreated controls
# Outline: as §2
# Viola tricolor [9] = assay: Post-emergence herbicidal action, VIOTR; type: in vivo; conditions: for herbicidal activity VIOTR: 80 g/ha, Table D
# Outline: as §1
# Viola tricolor [10] = assay: Pre-emergence herbicidal action, VIOTR; type: in vivo; conditions: for Herbicidal efficacy against VIOTR: Table K; for herbicidal activity VIOTR: scored visually after 3 weeks vs untreated controls
# Outline: as §2
# Pharbitis purpureum = assay: Post-emergence herbicidal action, PHBPU; type: in vivo; conditions: 80 g/ha, Table D
# Outline: as §1
# Abutilon theophrasti [11] = assay: Post-emergence herbicidal action, ABUTH; type: in vivo; conditions: 80 g/ha, Table D
# Outline: as §1
# Stellaria media [12] = assay: Pre-emergence herbicidal action, STEME; type: in vivo; conditions: dosage 320 g/ha, scored visually after 3 weeks vs untreated controls
# Outline: as §2
# Cyperus serotinus = assay: Pre-emergence herbicidal action, CYPES; type: in vivo; conditions: for herbicidal activity CYPES: dosage 320 g/ha, scored visually after 3 weeks vs untreated controls
# Outline: as §2
# Polygonum convolvulus = assay: Pre-emergence herbicidal action, POLCO; type: in vivo; conditions: Table K
# Excerpt: 1. Pre-Emergence Herbicidal Action Against Harmful Plants Seeds of monocotyledonous and dicotyledonous weed plants and crop plants are laid out in sandy loam soil in wood-fiber pots and covered with soil. The compounds of the invention, formulated in the form of wettable powders (WP) or as emulsion concentrates (EC), are then applied to the surface of the covering soil in the form of an aqueous suspension or emulsion at a water application rate equating to […], with addition of 0.2% wetting agent. After the treatment, the pots are placed in a greenhouse and kept under good growth conditions for the trial plants. The damage to the test plants is scored visually after a test period of 3 weeks by comparison with untreated controls (herbicidal activity in percent (%): 100% activity=the plants have died, 0% activity=like control plants).
# For comparison, the herbicidal activity of numerous compounds according to the invention was tested with the structurally closest compounds known from the documents WO 2011/035874, WO 2012/028579 and WO 2012/126932, by the pre- and post-emergence method.
# Abutilon theophrasti [13] = assay: Pre-emergence herbicidal action, ABUTH; type: in vivo; conditions: for Herbicidal efficacy against ABUTH: Table K; for herbicidal activity ABUTH: scored visually after 3 weeks vs untreated controls
# Outline: as §2
# ECHCG [14] = assay: Pre-emergence herbicidal action, ECHCG; type: in vivo, Echinochloa crus-galli
# Alopecurus myosuroides [15] = assay: Post-emergence herbicidal action, ALOMY; type: in vivo; conditions: for herbicidal activity ALOMY: 80 g/ha, Table C
# Outline: as §1
# Alopecurus myosuroides [16] = assay: Pre-emergence herbicidal action, ALOMY; type: in vivo; conditions: for herbicidal activity ALOMY: dosage 320 g/ha, scored visually after 3 weeks vs untreated controls
# Outline: as §2
compound,measurement,setting,value
CSc1c(C(F)F)ccc(C(=O)Nc2nnnn2C)c1Cl [Example 1-49],Herbicidal efficacy against AVEFA,Avena fatua [1]; 5 g/ha,50
same,herbicidal activity AVEFA,Avena fatua [1],100%
same,Herbicidal activity ECHCG,ECHCG [2],80%
same,Herbicidal efficacy against SETVI,Setaria viridis [3]; 20 g/ha,90
same,herbicidal activity SETVI,Setaria viridis [3],100%
same,herbicidal activity AMARE,Amaranthus retroflexus [4],80%
same,Herbicidal efficacy against SETVI,Setaria viridis [5]; 5 g/ha,80
same,herbicidal activity SETVI,Setaria viridis [5],90%
same,Herbicidal efficacy against STEME,Stellaria media [6]; 5 g/ha,70
same,Herbicidal activity STEME,Stellaria media [6],100%
same,herbicidal activity AMARE,Amaranthus retroflexus [7],100%
same,Herbicidal efficacy against MATIN,Matricaria inodora; dosage 20 g/ha,80
same,herbicidal activity MATIN,Matricaria inodora; dosage 320 g/ha,100%
same,Herbicidal efficacy against AVEFA,Avena fatua [8]; 20 g/ha,50
same,Herbicidal efficacy against AVEFA,Avena fatua [8]; 80 g/ha,80
same,herbicidal activity AVEFA,Avena fatua [8],100%
same,Herbicidal efficacy against VIOTR,Viola tricolor [9]; 5 g/ha,100
same,herbicidal activity VIOTR,Viola tricolor [9],100%
same,Herbicidal efficacy against VIOTR,Viola tricolor [10]; dosage 20 g/ha,100
same,Herbicidal efficacy against VIOTR,Viola tricolor [10]; dosage 80 g/ha,100
same,herbicidal activity VIOTR,Viola tricolor [10]; dosage 320 g/ha,100%
same,Herbicidal activity PHBPU,Pharbitis purpureum,90%
same,herbicidal activity ABUTH,Abutilon theophrasti [11],90%
same,Herbicidal activity STEME,Stellaria media [12],90%
same,Herbicidal efficacy against CYPES,Cyperus serotinus; 20 g/ha,50
same,Herbicidal efficacy against CYPES,Cyperus serotinus; 80 g/ha,70
same,herbicidal activity CYPES,Cyperus serotinus,90%
same,Herbicidal efficacy against POLCO,Polygonum convolvulus; dosage 80 g/ha,50
same,Herbicidal efficacy against ABUTH,Abutilon theophrasti [13]; dosage 20 g/ha,70
same,Herbicidal efficacy against ABUTH,Abutilon theophrasti [13]; dosage 80 g/ha,100
same,herbicidal activity ABUTH,Abutilon theophrasti [13]; dosage 320 g/ha,100%
same,Herbicidal efficacy against ECHCG,ECHCG [14]; 20 g/ha,50
same,Herbicidal efficacy against ECHCG,ECHCG [14]; 80 g/ha,100
same,Herbicidal efficacy against ALOMY,Alopecurus myosuroides [15]; 5 g/ha,60
same,herbicidal activity ALOMY,Alopecurus myosuroides [15],90%
same,Herbicidal efficacy against ALOMY,Alopecurus myosuroides [16]; 20 g/ha,40
same,Herbicidal efficacy against ALOMY,Alopecurus myosuroides [16]; 80 g/ha,90
same,herbicidal activity ALOMY,Alopecurus myosuroides [16],100%
Cn1nnnc1NC(=O)c1ccc(C(F)F)c([S+](C)[O-])c1Cl (stereo not shown) [Example 1-50],herbicidal activity AVEFA,Avena fatua [1],100%
same,Herbicidal activity ECHCG,ECHCG [2],100%
same,Herbicidal efficacy against SETVI,Setaria viridis [3]; 20 g/ha,100
same,Herbicidal efficacy against SETVI,Setaria viridis [3]; 80 g/ha,100
same,Herbicidal efficacy against SETVI,Setaria viridis [3]; 320 g/ha,100
same,herbicidal activity SETVI,Setaria viridis [3],100%
same,herbicidal activity AMARE,Amaranthus retroflexus [4],100%
same,herbicidal activity SETVI,Setaria viridis [5],100%
same,Herbicidal activity STEME,Stellaria media [6],100%
same,herbicidal activity AMARE,Amaranthus retroflexus [7],100%
same,Herbicidal efficacy against MATIN,Matricaria inodora; dosage 20 g/ha,90
same,Herbicidal efficacy against MATIN,Matricaria inodora; dosage 80 g/ha,100
same,Herbicidal efficacy against MATIN,Matricaria inodora; dosage 320 g/ha,100
same,herbicidal activity MATIN,Matricaria inodora; dosage 320 g/ha,100%
same,Herbicidal efficacy against AVEFA,Avena fatua [8]; 80 g/ha,90
same,Herbicidal efficacy against AVEFA,Avena fatua [8]; 320 g/ha,100
same,herbicidal activity AVEFA,Avena fatua [8],100%
same,herbicidal activity VIOTR,Viola tricolor [9],100%
same,Herbicidal efficacy against VIOTR,Viola tricolor [10]; dosage 20 g/ha,100
same,Herbicidal efficacy against VIOTR,Viola tricolor [10]; dosage 80 g/ha,100
same,Herbicidal efficacy against VIOTR,Viola tricolor [10]; dosage 320 g/ha,100
same,herbicidal activity VIOTR,Viola tricolor [10]; dosage 320 g/ha,100%
same,Herbicidal activity PHBPU,Pharbitis purpureum,100%
same,herbicidal activity ABUTH,Abutilon theophrasti [11],100%
same,Herbicidal activity STEME,Stellaria media [12],90%
same,Herbicidal efficacy against CYPES,Cyperus serotinus; 20 g/ha,70
same,Herbicidal efficacy against CYPES,Cyperus serotinus; 80 g/ha,100
same,Herbicidal efficacy against CYPES,Cyperus serotinus; 320 g/ha,100
same,herbicidal activity CYPES,Cyperus serotinus,100%
same,Herbicidal efficacy against POLCO,Polygonum convolvulus; dosage 80 g/ha,80
same,Herbicidal efficacy against POLCO,Polygonum convolvulus; dosage 320 g/ha,90
same,Herbicidal efficacy against ABUTH,Abutilon theophrasti [13]; dosage 20 g/ha,100
same,Herbicidal efficacy against ABUTH,Abutilon theophrasti [13]; dosage 80 g/ha,100
same,Herbicidal efficacy against ABUTH,Abutilon theophrasti [13]; dosage 320 g/ha,100
same,herbicidal activity ABUTH,Abutilon theophrasti [13]; dosage 320 g/ha,100%
same,Herbicidal efficacy against ECHCG,ECHCG [14]; 20 g/ha,90
same,Herbicidal efficacy against ECHCG,ECHCG [14]; 80 g/ha,100
same,Herbicidal efficacy against ECHCG,ECHCG [14]; 320 g/ha,100
same,herbicidal activity ALOMY,Alopecurus myosuroides [15],100%
same,Herbicidal efficacy against ALOMY,Alopecurus myosuroides [16]; 20 g/ha,90
same,Herbicidal efficacy against ALOMY,Alopecurus myosuroides [16]; 80 g/ha,100
same,Herbicidal efficacy against ALOMY,Alopecurus myosuroides [16]; 320 g/ha,100
same,herbicidal activity ALOMY,Alopecurus myosuroides [16],100%
"CSc1c(C(F)F)ccc(C(=O)Nc2ncnn2C)c1C [Example 4-1, 4-(difluoromethyl)-2-methyl-3-(methylsulfanyl)-N-(1-methyl-1H-1,2,4-triazol-5-yl)benzamide]",Herbicidal efficacy against AVEFA,Avena fatua [1]; 20 g/ha,20
same,Herbicidal activity ECHCG,ECHCG [2],90%
same,Herbicidal efficacy against SETVI,Setaria viridis [3]; 80 g/ha,80
same,Herbicidal efficacy against SETVI,Setaria viridis [3]; 320 g/ha,100
same,herbicidal activity SETVI,Setaria viridis [3],100%
same,herbicidal activity AMARE,Amaranthus retroflexus [4],100%
same,Herbicidal efficacy against SETVI,Setaria viridis [5]; 20 g/ha,60
same,herbicidal activity SETVI,Setaria viridis [5],100%
same,Herbicidal efficacy against STEME,Stellaria media [6]; 20 g/ha,80
same,Herbicidal activity STEME,Stellaria media [6],100%
same,herbicidal activity AMARE,Amaranthus retroflexus [7],100%
same,Herbicidal efficacy against MATIN,Matricaria inodora; dosage 80 g/ha,80
same,Herbicidal efficacy against MATIN,Matricaria inodora; dosage 320 g/ha,90
same,herbicidal activity MATIN,Matricaria inodora; dosage 320 g/ha,90%
same,Herbicidal efficacy against AVEFA,Avena fatua [8]; 80 g/ha,30
same,Herbicidal efficacy against AVEFA,Avena fatua [8]; 320 g/ha,80
same,herbicidal activity AVEFA,Avena fatua [8],80%
same,Herbicidal efficacy against VIOTR,Viola tricolor [9]; 20 g/ha,100
same,herbicidal activity VIOTR,Viola tricolor [9],100%
same,Herbicidal efficacy against VIOTR,Viola tricolor [10]; dosage 80 g/ha,100
same,Herbicidal efficacy against VIOTR,Viola tricolor [10]; dosage 320 g/ha,100
same,herbicidal activity VIOTR,Viola tricolor [10]; dosage 320 g/ha,100%
same,Herbicidal activity PHBPU,Pharbitis purpureum,100%
same,herbicidal activity ABUTH,Abutilon theophrasti [11],100%
same,Herbicidal activity STEME,Stellaria media [12],90%
same,Herbicidal efficacy against CYPES,Cyperus serotinus; 80 g/ha,30
same,Herbicidal efficacy against CYPES,Cyperus serotinus; 320 g/ha,50
same,Herbicidal efficacy against POLCO,Polygonum convolvulus; dosage 80 g/ha,30
same,Herbicidal efficacy against POLCO,Polygonum convolvulus; dosage 320 g/ha,30
same,Herbicidal efficacy against ABUTH,Abutilon theophrasti [13]; dosage 80 g/ha,90
same,Herbicidal efficacy against ABUTH,Abutilon theophrasti [13]; dosage 320 g/ha,100
same,herbicidal activity ABUTH,Abutilon theophrasti [13]; dosage 320 g/ha,100%
same,Herbicidal efficacy against ECHCG,ECHCG [14]; 80 g/ha,70
same,Herbicidal efficacy against ECHCG,ECHCG [14]; 320 g/ha,100
same,Herbicidal efficacy against ALOMY,Alopecurus myosuroides [15]; 20 g/ha,70
same,herbicidal activity ALOMY,Alopecurus myosuroides [15],80%
same,Herbicidal efficacy against ALOMY,Alopecurus myosuroides [16]; 320 g/ha,40

# — patent US20230183193A1, “4-DIFLUOROMETHYL BENZOYL AMIDES WITH HERBICIDAL ACTION” (BAYER CROPSCIENCE AKTIENGESELLSCHAFT, priority 2017, published 2023)
